In the METLIN SMRT retention time set (Domingo-Almenara et al. 2019):

Assay: gradient 5% acetonitrile 3 min, to 50% in 2 min, to 85% in 15 min, held 3 min, 100 µL/min
Settings: column: Zorbax Extend-C18 2.1 x 50 mm; eluents: water / acetonitrile, 0.1% formic acid
How it was run: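 Data were gathered over 3 months by HPLC coupled to a quadrupole time-of-flight mass spectrometer, operated in positive and negative ionization mode. Mixtures of ~100 pure standards ran on a Zorbax Extend-C18 column (2.1 × 50 mm, 1.8 μm) at 100 μL/min, with water and acetonitrile each containing 0.1% formic acid and dead and dwell volumes of 40 μL and 900 μL. Retention time was read from adduct peaks picked by computer and checked manually.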

SMILES	RP-LC retention time [s]
CCN(CC)CCNC(=O)Cc1c(C)nc2c(-c3ccc(F)cc3)c(C)nn2c1C	661
CCC(C)(C)NC(=O)C1CCCN(S(=O)(=O)c2c[nH]c(C(=O)N3CCCCCC3)c2)C1 (stereo not drawn)	871
COc1ccc2[nH]cc(CCN3CC(C(=O)NC4CCCC4)CC3=O)c2c1 (stereo not drawn)	709
Cc1ccc2c(c1)N(C(=O)Cn1c(C(C)C)nc3c(c1=O)CCN(Cc1ccccc1)C3)CCO2	787
CCOC(=O)C1=C(C)NC2=C(C(=O)C(C(=O)OC)C(C)C2)C1c1cccc(OCC)c1 (stereo not drawn)	908
CCOc1cc(S(=O)(=O)NCc2ccccn2)ccc1Br	666
O=C1COc2ccc(Cl)cc2N1Cc1nc(-c2ccc3c(c2)OCO3)no1	1040
CC1=C(c2ccc(F)cc2)S(=O)(=O)N=C1N1CCCN(C(=O)C2CCC2)CC1	790
CCNc1cc(N2CCC(CCC(=O)NCc3ccc(F)cc3F)CC2)ncn1	669
CCOc1ccc(-c2cn3ccn(-c4ccc(C(C)C)cc4)c(=O)c3n2)cc1	1030
CC(C)c1noc(C2CCCN(C(=O)NC(C)(C)C)CCC(=O)NCC2)n1 (stereo not drawn)	690
O=C(CSc1c(-c2ccccc2)[nH]c2ccccc12)NCC1CCCO1 (stereo not drawn)	753
O=C(Cn1cc(-c2ccc(F)cc2)oc1=O)NC1CCN(Cc2ccccc2)CC1	632
COc1ccc(NC(=O)[C@@H]2c3ccccc3C(=O)N3CCCC[C@@H]23)cc1OC	727
OC[C@@H]1CN(Cc2ccncc2F)C[C@H]1c1nc(-c2cccnc2)no1	560
Cc1ccc(-c2cc3c(=O)n(Cc4nc(-c5ccccc5Br)no4)ncn3n2)c(C)c1	1250
O=C(O)c1cc(-c2ccccn2)nc2ccc(Br)cc12	889
Cc1ccc(-c2cc(C(=O)N3CCN(C)CC3)n(C)c2)cc1	644
COc1ccc(C(=O)N2CCc3ccc(C(=O)NCc4cccs4)cc32)cc1	806
COc1ccc(C2(C(=O)NCc3nn(C)c4c3CN(C)CC4)CC2)cc1	865
CCN(CC)S(=O)(=O)c1ccc2c(c1)N(CC(=O)N(C)Cc1ccco1)C(=O)C1CCCCN21 (stereo not drawn)	959
CCOc1ccccc1-n1ccn(Cc2nc(-c3cccc(F)c3)no2)c(=O)c1=O	876

SMILES	RP-LC retention time [s]
CN(CCNC(=O)CN(c1ccccc1)S(=O)(=O)N(C)C)Cc1ccccc1	656
COc1ccc(NC(=O)c2c(C)oc3nc(C)nc(N4CCOCC4)c23)cc1Cl	788
CCc1nc(-c2c(C)cc(C)nc2NC(=O)c2ccc(C)c(F)c2)no1	883
Cc1cc(N2CCN(C(=O)c3ccc(F)cc3)CC2)nc(N2CCOCC2)n1	608
Cn1nccc1-c1cccc(-c2noc(-c3ccc(Br)o3)n2)c1	1090
CC(=O)Nc1c(C)nn(-c2ccc(Cl)cc2)c1N1CCC(C(=O)NCc2ccco2)CC1	685
COC[C@@H]1CN(Cc2cn[nH]c2-c2ccccc2)C[C@H]1c1ccccn1	604
Cc1cccc(Cn2nc(-c3nc(-c4ccc(F)cc4)no3)ccc2=O)c1	1160
CCc1nc2c(NC(=O)c3ccc(C)cc3C)cccn2n1	920
CCc1ccccc1NC(=O)c1c(O)c2cccnc2n(-c2cccc(F)c2)c1=O	1320
CC1CCN(C(=O)C2N(C(C)C)C(=O)C23CCCC3)CC1 (stereo not drawn)	737
Cc1ccc(CCNC(=O)c2nc(N3CCOCC3)c3ccccc3n2)cc1	729
Cc1ccc(-c2nc3ccc(Br)cn3c2Nc2ccccc2C)cc1	892
O=C(CN1C(=O)CCCc2cc(S(=O)(=O)N3CCCCC3)ccc21)NCc1ccc(Cl)cc1	926
CCN(CC)CCNC(=O)C1CCCN(c2ccc(-c3ccc(C)cc3)nn2)C1 (stereo not drawn)	590
Cc1ccccc1S(=O)(=O)Cc1ccc(C(=O)N2CCN(c3ccccn3)CC2)o1	613
CC(C(=O)NCCCN1CCOCC1)C1CCN(C(=O)c2cc3cc(Cl)ccc3[nH]2)CC1 (stereo not drawn)	648
COc1cccc(C(=O)NC2(C(F)(F)F)C(=O)N(C3CCCCC3)C(C)=C2C(C)=O)c1 (stereo not drawn)	987
Cc1cnn(Cc2nc(-c3ccc(NC(=O)C(C)(C)C)cc3)oc2C)c1	863
c1ccc(-c2nc(-c3cnccn3)no2)c(OC2CCN(Cc3ccc4c(c3)CCO4)C2)c1 (stereo not drawn)	689
O=C(c1ccc(Cl)s1)N1CCN(S(=O)(=O)C2CC2)CC1	743
Cn1c(=O)c2nc(S(=O)(=O)CCC(=O)Nc3cc(F)ccc3Cl)n(C)c2n(C)c1=O	778

SMILES	RP-LC retention time [s]
COc1ccc(NS(=O)(=O)c2cc3n(c2)CCCN(C(C)C)C3=O)cc1Cl	773
COc1cccc(Cn2nc3n(CCC(=O)NC4CCCC4)c(=O)c4ccccc4n3c2=O)c1	873
Cc1c(-c2nn3c(Cc4ccccc4)nnc3s2)nnn1-c1ccc(Cl)cc1	1040
Cc1cccc(NC(=O)C2CCCN2S(=O)(=O)c2cc3c(cc2C)NC(=O)CO3)c1 (stereo not drawn)	763
Cc1cc2c(cc1CNC(=O)Cn1c(C)c(C#N)c3ccccc31)OCCCO2	894
CCN1C(=O)CCc2cc(NS(=O)(=O)c3ccccc3Cl)ccc21	751
COc1cccc(Cn2c(=O)c3sccc3n(Cc3nc(-c4ccccc4)no3)c2=O)c1	1000
O=C(Nc1nccs1)C1CCN(C(=O)c2ccc[nH]c2=O)CC1	558
CC1Cc2cc(S(=O)(=O)N3CCC(C(N)=O)(N4CCCCC4)CC3)ccc2N1C(=O)C1CC1 (stereo not drawn)	630
O=S(=O)(c1ccccc1Cl)N1CCc2nc(-c3ccccc3)ncc2C1	1080
Cc1ccc(N2CC(c3noc(-c4cc(F)ccc4F)n3)CC2=O)cc1 (stereo not drawn)	1000
CCc1nc(-n2cccc2)sc1C(=O)Nc1ccc(F)c(C)c1	1170
Cc1cccc(C2(O)C(=O)N(CC(=O)N(C)c3ccccc3)c3ccccc32)c1 (stereo not drawn)	614
CCCn1ccc2oc(C)c(C(=O)NC(C)c3ccc(OCC)cc3)c2c1=O (stereo not drawn)	1070
O=C(NC1CCCCC1)c1cccc(Nc2c(-c3ccc(F)cc3)nc3cnccn23)c1	848
CCn1cccc1-c1nc(C)c(C(=O)N2CCN(c3cccc(C)c3)C(C)C2)s1 (stereo not drawn)	1190
CCc1cc(=O)n(CC(=O)Nc2cccc(Cl)c2)c(-c2ccccc2)n1	1220
CCn1ccc2sc(C)c(C(=O)N3CCCCC3)c2c1=O	684
CCOC(=O)CNC(=O)N1CCCC1c1ccc(F)cc1 (stereo not drawn)	760
O=C(Nc1ccc2c(c1)OCCO2)c1ccc(-c2ccsc2)nc1	864
CCCCNC(=O)C1Cc2cc(S(=O)(=O)N3CCCCC3)ccc2N1C(=O)CC (stereo not drawn)	885
COc1ccc(NC(=O)C2CCN(c3cncnc3N3CCCC3)CC2)cc1OC	616

SMILES	RP-LC retention time [s]
Cc1nn(CC(=O)NCc2ccco2)c(=O)c2c(-n3cccc3)n(-c3ccc(Cl)cc3)nc12	990
CCOC(=O)C1CCN(S(=O)(=O)c2cccc(-c3nnc(-c4ccc(C)cc4)o3)c2)CC1	1090
CCN(CC)S(=O)(=O)c1ccc(Cl)c(-c2nnc(-c3ccc(OC)cc3)o2)c1	1090
CCn1cc(S(=O)(=O)N2CCCCC2c2nc(-c3cccnc3)n[nH]2)cn1 (stereo not drawn)	615
CCOC(=O)c1c(NCCc2cccs2)c2ccc(Cl)cc2[nH]c1=O	821
COc1cccc(Cn2cc(C(=O)c3cc(C)ccc3C)c(=O)c3ccc(C)nc32)c1	1060
CCC(=O)N1CCc2cc(N3CC(C(=O)NCc4cccc(C)c4)CC3=O)ccc21 (stereo not drawn)	745
O=C(Cc1ccc(F)cc1)N1CCN(CC(O)c2cccs2)CC1 (stereo not drawn)	569
O=C(C1CCC(=O)N1S(=O)(=O)c1ccccc1)N1CCCCC1 (stereo not drawn)	757
COCCOC(=O)c1c(C)oc2ccc(OC(=O)c3cccs3)cc12	1020
CCC(C)NC(=O)CCCn1c(=O)c2cccn2c2ccccc21 (stereo not drawn)	760
CCc1ccc(OCC(=O)Nc2nc(-c3ccc(F)cc3F)cs2)cc1	1260
CCCN1CCN(C(=O)CCc2c(C)c(C(=O)OCC)c(C)n2CC)CC1	645
COC1CCN(CC2CCCCCN2C(=O)Nc2ccc3c(c2)OCCO3)CC1 (stereo not drawn)	651
COC(=O)C(C)NC(=O)N1CCN(c2nc3ccccc3n(Cc3ccccc3)c2=O)CC1 (stereo not drawn)	869
O=C1NC2(CCN(C(=O)c3ccc4ccccc4c3)CC2)N=C1c1ccccc1	859
Cc1nc(C)c(-c2nnc(NC(=O)c3ccc(F)cc3F)o2)s1	663
COCCc1noc(C2CN(C(=O)c3ccoc3)C2)n1	629
Cc1nn(CC(=O)NCc2ccco2)c(=O)c2nn(-c3ccccc3)c(C)c12	732
COc1ccc(-c2cc3n(n2)CCCN(C(=O)Cc2ccsc2)C3)cc1	822
Cn1cnc(S(=O)(=O)N2CCC(C(=O)Nc3cccc(Cl)c3)CC2)c1	753
COc1ccc(NC(=O)Cn2c(C)cc(-c3nnc(-c4ccccc4)o3)c2C)cc1	927
